Experiments:
[1] = system: Sagittaria pygmaea, L.; experiment: Preemergence weed control under flooded paddy conditions, SAGPY (Arrowhead (Pygmaea)); type: in vivo; details: preemergence, flooded paddy, rated 3-4 weeks after treatment
[2] = system: Monochoria vaginalis, Presl.; experiment: Preemergence weed control under flooded paddy conditions, MOOVA (Monochoria); type: in vivo; details: preemergence, flooded paddy, rated 3-4 weeks after treatment
[3] = system: Cyperus serotinus, Rottb.; experiment: Preemergence weed control under flooded paddy conditions, CYPSE (Flatsedge); type: in vivo; details: preemergence, rated 3-4 weeks after treatment
[4] = system: Cyperus iria; experiment: Preemergence weed control under flooded paddy conditions, CYPIR (Rice Flatsedge); type: in vivo; details: preemergence, flooded paddy, rated 3-4 weeks after treatment
[5] = system: Echinochloa oryzoides (Ard.) Fritsch.; experiment: Preemergence weed control under flooded paddy conditions, ECHORC (Watergrass (Calif.)); type: in vivo; details: preemergence, flooded paddy, rated 3-4 weeks after treatment
[6] = system: Oryza sativa, (L.) Tebonnet; experiment: Rice tolerance to post-transplant applications under flooded paddy conditions (Example 187), ORYSAT (Rice, Tebonnet); details: rated 3-4 weeks after treatment
Also: meaning of each grade not given here.

| SMILES | herbicidal effect rating, SAGPY ([1]; Rate 0.0320 kg/ha) | herbicidal effect rating, SAGPY ([1]; Rate 0.0620 kg/ha) | herbicidal effect rating, SAGPY ([1]; Rate 0.1250 kg/ha) | herbicidal effect rating, SAGPY ([1]; Rate 0.2500 kg/ha) | herbicidal effect rating, MOOVA ([2]; Rate 0.0320 kg/ha) | herbicidal effect rating, MOOVA ([2]; Rate 0.0620 kg/ha) | herbicidal effect rating, MOOVA ([2]; Rate 0.1250 kg/ha) | herbicidal effect rating, MOOVA ([2]; Rate 0.2500 kg/ha) | herbicidal effect rating, CYPSE ([3]; Rate 0.0620 kg/ha) | herbicidal effect rating, CYPSE ([3]; Rate 0.1250 kg/ha) | herbicidal effect rating, CYPSE ([3]; Rate 0.2500 kg/ha) | herbicidal effect rating, CYPIR ([4]; Rate 0.0320 kg/ha) | herbicidal effect rating, CYPIR ([4]; Rate 0.0620 kg/ha) | herbicidal effect rating, CYPIR ([4]; Rate 0.1250 kg/ha) | herbicidal effect rating, CYPIR ([4]; Rate 0.2500 kg/ha) | herbicidal effect rating, ECHORC ([5]; Rate 0.0320 kg/ha) | herbicidal effect rating, ECHORC ([5]; Rate 0.0620 kg/ha) | herbicidal effect rating, ECHORC ([5]; Rate 0.1250 kg/ha) | herbicidal effect rating, ECHORC ([5]; Rate 0.2500 kg/ha) | herbicidal effect rating ORYSAT ([6]; Rate 0.0320 kg/ha) | also measured |
| --- | --- | --- | --- | --- | --- | --- | --- | --- | --- | --- | --- | --- | --- | --- | --- | --- | --- | --- | --- | --- | --- |
| CNC(=O)COc1ccccc1-c1nsc2ccc(-n3c(=O)cc(C(F)(F)F)n(C)c3=O)cc12 [Example 562, Acetamide, 2-{o-{5-[3,6-dihydro-3-methyl-2,6-dioxo-4-(trifluoromethyl)-1(2H)-pyrimidinyl]-1,2-benzisothiazol-3-yl}phenoxy}-N-methyl-] | 0.0 | 0.0 | 5.0 | 7.0 | 9.0 | 9.0 | 9.0 | 9.0 | 4.0 | 9.0 | 9.0 | 2.0 | 7.0 | 9.0 | 9.0 | 2.7 | 5.1 | 5.1 | 9.0 | 2.0 | herbicidal effect rating, SAGPY ([1]; Rate 0.5000 kg/ha): 0.0; herbicidal effect rating, MOOVA ([2]; Rate 0.5000 kg/ha): 9.0; herbicidal effect rating, CYPSE ([3]; Rate 0.5000 kg/ha): 9.0; herbicidal effect rating, CYPIR ([4]; Rate 0.5000 kg/ha): 3.0; herbicidal effect rating, ECHORC ([5]; Rate 0.5000 kg/ha): 9.0; herbicidal effect rating ORYSAT ([6]; Rate 0.0620 kg/ha): 3.0; herbicidal effect rating ORYSAT ([6]; Rate 0.1250 kg/ha): 4.0; herbicidal effect rating ORYSAT ([6]; Rate 0.2500 kg/ha): 9.0; herbicidal effect rating ORYSAT ([6]; Rate 0.5000 kg/ha): 6.0 |
| Cn1c(C(F)(F)F)cc(=O)n(-c2ccc3snc(-c4ccccc4OCC(N)=O)c3c2)c1=O [Example 563, Acetamide, 2-{o-{5-[3,6-dihydro-3-methyl-2,6-dioxo-4-(trifluoromethyl)-1(2H)-pyrimidinyl]-1,2-benzisothiazol-3-yl}phenoxy}-] | 0.0 | 0.0 | 0.0 | 2.0 | 8.0 | 9.0 | 9.0 | 9.0 | 0.0 | 0.0 | 4.0 | 0.0 | 2.0 | 6.0 | 6.0 | 3.6 | 5.1 | 5.6 | 9.0 | 4.0 | herbicidal effect rating, SAGPY ([1]; Rate 0.5000 kg/ha): 4.0; herbicidal effect rating, MOOVA ([2]; Rate 0.5000 kg/ha): 9.0; herbicidal effect rating, CYPSE ([3]; Rate 0.0320 kg/ha): 0.0; herbicidal effect rating, CYPSE ([3]; Rate 0.5000 kg/ha): 0.0; herbicidal effect rating, CYPIR ([4]; Rate 0.5000 kg/ha): 9.0; herbicidal effect rating, ECHORC ([5]; Rate 0.5000 kg/ha): 9.0; herbicidal effect rating ORYSAT ([6]; Rate 0.0620 kg/ha): 7.0; herbicidal effect rating ORYSAT ([6]; Rate 0.1250 kg/ha): 7.0; herbicidal effect rating ORYSAT ([6]; Rate 0.2500 kg/ha): 7.0; herbicidal effect rating ORYSAT ([6]; Rate 0.5000 kg/ha): 4.0 |
| Cn1c(C(F)(F)F)cc(=O)n(-c2ccc3snc(/C=C/C(=O)c4ccccc4)c3c2)c1=O [Example 564, 2,4(1H,3H)-Pyrimidinedione, 1-methyl-3-[3-(3-oxo-3-phenylpropenyl)-1,2-benzisothiazol-5-yl]-6-(trifluoromethyl)-, (E)-] | 0.0 | 0.0 | 0.0 | 0.0 | 9.0 | 9.0 | 9.0 | 9.0 | 0.0 | 0.0 | 4.0 | 6.0 | 6.0 | 7.0 | 9.0 | 4.0 | 4.0 | 5.0 | 7.0 | 0.0 | herbicidal effect rating, CYPSE ([3]; Rate 0.0320 kg/ha): 0.0; herbicidal effect rating ORYSAT ([6]; Rate 0.0620 kg/ha): 0.0; herbicidal effect rating ORYSAT ([6]; Rate 0.1250 kg/ha): 0.0; herbicidal effect rating ORYSAT ([6]; Rate 0.2500 kg/ha): 0.0 |

Source: patent publication EP0908457B1, “3-(1,2-benzisothiazol- and isoxazol-5-Y1)-2,4(1H,3H)-pyrimidinedione or thione and 3-(1,2-benzisothiazol- and isoxazol-5-y1)-4(3H)-pyrimidinone or thione herbicidal agents” (BASF AKTIENGESELLSCHAFT, priority 1997, dated 1999)
